From US10555977B2, “Probiotic bacteria for the topical treatment of skin disorders” (DUPONT NUTRITION BIOSCIENCES APS, priority 2011, dated 2020)

What was measured:
[1] = tested on: occludin (OCLN); test: Real-time quantitative PCR of occludin expression in differentiated keratinocytes; type: cell-based, human; conditions: 24 h, p<0.05
Description: (§1) Adult normal human primary keratinocytes (Invitrogen, Carlsbad, Calif., USA) were maintained in EpiLife® medium with 60 μM calcium (Invitrogen) supplemented with Human Keratinocyte Growth Supplement (HKGS) (Invitrogen) (basal medium) at 5% CO2 atmosphere. To differentiate the keratinocytes, the P5-P7 cells were plated on ThinCert™ cell culture inserts (Greiner Bio-one, Frickenhausen, Germany) at density of 10^5cells/cm^2. After overnight incubation at 5% CO2 atmosphere the basal medium was aspirated and changed to differentiation medium (DM) consisting of EpiLife® medium with 1.45 mM CaCl2 supplemented with human keratinocyte growth supplement and incubated for 4 days at 5% CO2 atmosphere. DM was changed both at both the apical and basolateral side every day. […]
(§2) Betaine (Danisco) were dissolved in DM, and applied to apical side of differentiated keratinocytes at amounts of 0, 10, 50, 100, 250 and 500 μM. The cells were incubated for 1, 12, and 24 hours at which points TEER was measured as described below. […]
(§3) Real-time quantitative PCR of claudin-4 (CLDN4), occludin (OCLN), zonula occludens-1 (ZO-1) was done with TaqMan gene expression assays (Applied biosystems, Foster City, Calif., USA) designed for each specific gene in an amplification reaction of 20 μl according to manufacturer's instructions with 7500 Fast Real-time PCR System (Applied Biosystems). […]

[2] = tested on: Adult normal human primary keratinocytes (tight junction integrity); test: Transepithelial electrical resistance (TEER) of differentiated keratinocyte monolayers; type: cell-based; conditions: for % Change in TEER (additional increase): 24 h
Description: (§4) Adult normal human primary keratinocytes (Invitrogen, Carlsbad, Calif., USA) were maintained in EpiLife® medium with 60 μM calcium (Invitrogen) supplemented with Human Keratinocyte Growth Supplement (HKGS) (Invitrogen) (basal medium) at 5% CO2 atmosphere. To differentiate the keratinocytes, the P5-P7 cells were plated on ThinCert™ cell culture inserts (Greiner Bio-one, Frickenhausen, Germany) at density of 10^5cells/cm^2. After overnight incubation at 5% CO2 atmosphere the basal medium was aspirated and changed to differentiation medium (DM) consisting of EpiLife® medium with 1.45 mM CaCl2 supplemented with human keratinocyte growth supplement and incubated for 4 days at 5% CO2 atmosphere. DM was changed both at both the apical and basolateral side every day. Test substances were given at fourth day after starting the differentiation.
as §2
The integrity of the monolayer was verified by measuring TEER before and after each time point using Millicell-ERS system (Millipore, Billerica, Mass., US) (26). The TEER obtained from the monolayer and the insert was subtracted with background TEER obtained from the insert to yield the monolayer resistance and multiplied with the area of the insert to obtain the result as ohm×cm^2. For the experiments with betaine and probiotics the results are expressed as a percentage change in TEER (% Change in TEER) which reflects the change in the resistance in the given time point compared to a control time point, which was the same cell monolayer before applying the test substances.

[3] = tested on: zonula occludens-1 (ZO-1); test: Real-time quantitative PCR of zonula occludens-1 expression in differentiated keratinocytes; type: cell-based, human; conditions: betaine 10-500 μM, 24 h
Description: as §1, §2, §3

[4] = tested on: claudin-4 (CLDN4); test: Real-time quantitative PCR of claudin-4 expression in differentiated keratinocytes; type: cell-based, human; conditions: betaine 10-500 μM, 24 h
Description: as §4, §2
The differentiated keratinocytes were treated with soluble metabolites produced by probiotics, probiotic whole bacterial cells, and bacterial cell lysates from the apical side for 1 h, 8 h and 24 h at which the TEER was measured. […]

With `C[N+](C)(C)CC(=O)O` [betaine, Betaine] the “Expression of OCLN” value ([1]; 100 μM betaine) was “decreased”, the “Expression of OCLN” value ([1]; 250 μM betaine) was “decreased” and the “% Change in TEER” value ([2]; 50 μM and higher concentrations of betaine, after 12 h, p<0.05 to p<0.001) was “remained increased”. For the same compound, the “% Change in TEER” value ([2]; 50 μM betaine, after 1 hour, p<0.05) was “increased”, the “% Change in TEER (additional increase)” value ([2]; 100 μM betaine, p<0.05, mean±SE) was 41.8±2.8% and the “% Change in TEER (additional increase)” value ([2]; 500 μM betaine, p<0.01, mean±SE) was 47.8±4.2%. For the same compound, the “% Change in TEER” value ([2]; lowest amount of betaine (10 μM), apical side) was “remained at the basal level”, the “Expression of ZO-1” value [3] was “remained similar to the basal levels” and the “Expression of CLDN4” value [4] was “remained similar to the basal levels”.
